{
  "source": "BindingDB's records for doi:10.1016/s0960-894x(00)00662-4",
  "about": "(Dupont Pharmaceuticals, 2001)",
  "test": "Compound was evaluated for its ability to inhibit the NNRTI HIV-1 enzyme by 50% using enzyme assay",
  "data": [
    {"smiles": "O=C1Nc2ccc(Cl)cc2[C@@](C#CC2CC2)(C(F)(F)F)N1", "values": [
      {"measurement": "IC50", "result": 31, "unit": "nM"}
    ]}
  ]
}
